Measured values: patent US11395847B2, “Acylated GLP-1/GLP-2 dual agonists” (Zealand Pharma A/S, priority 2016, dated 2022)
Where a SMILES comes first, the peptide text is derived from it.

Key:
[1] = molecular target: T1, human GLP-1 receptor (Homo sapiens, UniProt P43220); test: GLP-1 receptor potency assay (cAMP ALPHASCREEN, HEK293 cells stably expressing GLP-1 R); type: cell-based; conditions: cAMP response, HEK293 cells expressing human GLP-1 R
T1 construct: expressed in transfected cells
Summary of the method: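 Clonal HEK293 line stably transfected with human GLP-1R (G418-selected) was treated with test compounds and the cAMP response quantified by ALPHASCREEN. Signals were normalized to positive control and vehicle, with EC50 and maximal response taken from concentration-response curves.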

[2] = molecular target: T2, human GLP-2 receptor (Homo sapiens, UniProt O95838, D470N); test: GLP-2 receptor potency assay (cAMP ALPHASCREEN, HEK293 cells stably expressing GLP-2 R); type: cell-based; conditions: cAMP response, HEK293 cells expressing human GLP-2 R; read-out: EC50 GLP-2
T2 construct: expressed in transfected cells
T2 sequence (O95838 1-553 D470N): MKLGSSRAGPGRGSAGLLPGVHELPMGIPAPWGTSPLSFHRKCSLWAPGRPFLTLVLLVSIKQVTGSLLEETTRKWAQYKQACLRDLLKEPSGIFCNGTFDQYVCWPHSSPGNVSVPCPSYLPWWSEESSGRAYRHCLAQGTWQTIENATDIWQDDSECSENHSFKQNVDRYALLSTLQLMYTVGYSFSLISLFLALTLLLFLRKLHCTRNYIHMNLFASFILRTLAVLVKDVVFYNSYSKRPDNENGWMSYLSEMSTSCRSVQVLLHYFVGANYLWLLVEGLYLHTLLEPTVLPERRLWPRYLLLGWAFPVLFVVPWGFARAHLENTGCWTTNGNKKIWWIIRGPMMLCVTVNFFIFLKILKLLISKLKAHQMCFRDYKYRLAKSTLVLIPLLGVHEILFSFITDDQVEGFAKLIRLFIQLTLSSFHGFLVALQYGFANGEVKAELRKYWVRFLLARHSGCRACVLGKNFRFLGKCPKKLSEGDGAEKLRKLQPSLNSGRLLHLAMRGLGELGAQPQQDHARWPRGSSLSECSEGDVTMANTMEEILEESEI
Summary of the method: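 HEK293 clones stably transfected with the human GLP-2 receptor, selected with G418, were used. Intracellular cAMP was quantified by AlphaScreen. Responses were normalised to positive and vehicle controls, and EC50 and maximal response were taken from concentration-response curves.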

[3] = Chemical stability (RP-HPLC normalized purity after incubation at 40° C.); type: physicochemical; conditions: 14-day incubation, 0.2 mg/ml, normalized purity (area-%)
Summary of the method: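 Peptide at 0.2 mg/ml final in water adjusted to pH 6, 7, 7.5 or 9, incubated at 40° C for 14 days. Purity measured as main-peak area-% by C18 RP-HPLC (acetonitrile/TFA/water gradient, UV 220 nm) and normalized to T=0 set at 100 for each pH.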

T1 sequence (P43220 24-463): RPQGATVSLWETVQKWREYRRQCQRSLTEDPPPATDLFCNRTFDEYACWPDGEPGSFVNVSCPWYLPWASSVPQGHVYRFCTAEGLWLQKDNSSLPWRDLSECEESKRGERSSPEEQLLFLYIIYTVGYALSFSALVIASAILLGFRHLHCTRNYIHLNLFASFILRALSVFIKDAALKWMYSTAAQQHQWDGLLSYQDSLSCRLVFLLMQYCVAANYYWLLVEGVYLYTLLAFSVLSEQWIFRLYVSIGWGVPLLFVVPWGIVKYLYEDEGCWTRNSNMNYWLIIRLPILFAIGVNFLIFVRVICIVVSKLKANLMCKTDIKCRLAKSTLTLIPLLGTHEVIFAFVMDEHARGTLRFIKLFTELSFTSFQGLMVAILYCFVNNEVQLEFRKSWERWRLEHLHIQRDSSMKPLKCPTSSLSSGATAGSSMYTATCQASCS

EC50 [1] [nM]	EC50 [2] [nM]	pH 6 normalized stability ([3]; pH 6, 40° C.)	pH 7 normalized stability ([3]; pH 7, 40° C.)	Compound
0.49	0.083	C (<80% normalized stability)	B (>80% stability)	CC[C@H](C)[C@H](NC(=O)[C@H](Cc1ccccc1)NC(=O)[C@H](CC(=O)O)NC(=O)[C@H](CCCNC(=N)N)NC(=O)[C@H](C)NC(=O)[C@H](C)NC(=O)[C@H](CCC(N)=O)NC(=O)[C@H](CCCCNC(=O)CC[C@H](NC(=O)CCCCCCCCCCCCCCCCC(=O)O)C(=O)O)NC(=O)[C@H](CC(=O)O)NC(=O)[C@H](CC(C)C)NC(=O)[C@@H](NC(=O)[C@@H](NC(=O)[C@H](C)NC(=O)[C@H](CC(C)C)NC(=O)[C@H](CCC(=O)O)NC(=O)[C@H](CO)NC(=O)[C@H](CO)NC(=O)[C@H](Cc1ccccc1)NC(=O)[C@H](CO)NC(=O)CNC(=O)[C@H](CC(=O)O)NC(=O)C(C)(C)NC(=O)[C@@H](N)Cc1c[nH]cn1)[C@@H](C)O)[C@@H](C)CC)C(=O)N[C@@H](C)C(=O)N[C@@H](Cc1c[nH]c2ccccc12)C(=O)N[C@@H](CC(C)C)C(=O)N[C@H](C(=O)N[C@@H](CCC(N)=O)C(=O)N[C@@H](Cc1c[nH]cn1)C(=O)N[C@@H](CCCCN)C(=O)N[C@H](C(=O)N[C@H](C(=O)N[C@@H](CC(=O)O)C(=O)O)[C@@H](C)O)[C@@H](C)CC)[C@@H](C)CC [A, reference compound] (HELM PEPTIDE1{H.[Aib].D.G.S.F.S.S.E.L.A.T.I.L.D.K.Q.A.A.R.D.F.I.A.W.L.I.Q.H.K.I.T.D}|PEPTIDE2{[O=C(O)CCCCCCCCCCCCCCCCC(=O)[*:2]].[gGlu]}$PEPTIDE1,PEPTIDE2,16:R3-2:R2$$$V2.0)
1.8	0.087			CC[C@H](C)[C@H](NC(=O)[C@H](Cc1ccccc1)NC(=O)[C@H](CC(=O)O)NC(=O)[C@H](CCCNC(=N)N)NC(=O)[C@H](C)NC(=O)[C@H](C)NC(=O)[C@H](CC(C)C)NC(=O)[C@H](CCCCNC(=O)CC[C@H](NC(=O)CCCCCCCCCCCCCCCCC(=O)O)C(=O)O)NC(=O)[C@H](CC(=O)O)NC(=O)[C@H](CC(C)C)NC(=O)[C@@H](NC(=O)[C@@H](NC(=O)[C@H](C)NC(=O)[C@H](CC(C)C)NC(=O)[C@H](CCC(=O)O)NC(=O)[C@H](CO)NC(=O)[C@H](CO)NC(=O)[C@H](Cc1ccccc1)NC(=O)[C@@H](NC(=O)CNC(=O)[C@H](CCC(=O)O)NC(=O)C(C)(C)NC(=O)[C@@H](N)Cc1c[nH]cn1)[C@@H](C)O)[C@@H](C)O)[C@@H](C)CC)C(=O)N[C@@H](C)C(=O)N[C@@H](Cc1c[nH]c2ccccc12)C(=O)N[C@@H](CC(C)C)C(=O)N[C@H](C(=O)N[C@@H](CCC(=O)O)C(=O)N[C@@H](Cc1c[nH]cn1)C(=O)N[C@@H](CCCCN)C(=O)N[C@H](C(=O)N[C@H](C(=O)N[C@@H](CC(=O)O)C(=O)O)[C@@H](C)O)[C@@H](C)CC)[C@@H](C)CC [Compound 10] (HELM PEPTIDE1{H.[Aib].E.G.T.F.S.S.E.L.A.T.I.L.D.K.L.A.A.R.D.F.I.A.W.L.I.E.H.K.I.T.D}|PEPTIDE2{[O=C(O)CCCCCCCCCCCCCCCCC(=O)[*:2]].[gGlu]}$PEPTIDE1,PEPTIDE2,16:R3-2:R2$$$V2.0)
0.13	0.35			CC[C@H](C)[C@H](NC(=O)[C@H](Cc1ccccc1)NC(=O)[C@H](CC(=O)O)NC(=O)[C@H](CCCCNC(=O)COCCOCCNC(=O)[C@H](CCCCN)NC(=O)[C@H](CCC(=O)O)NC(=O)[C@H](CCCCN)NC(=O)CC[C@H](NC(=O)CCCCCCCCCCCCCCCCCCC(=O)O)C(=O)O)NC(=O)[C@H](C)NC(=O)[C@H](C)NC(=O)[C@H](CCC(N)=O)NC(=O)[C@H](CCC(=O)O)NC(=O)[C@H](CC(=O)O)NC(=O)[C@H](CC(C)C)NC(=O)[C@@H](NC(=O)[C@@H](NC(=O)[C@H](C)NC(=O)[C@H](CC(C)C)NC(=O)[C@H](CCC(=O)O)NC(=O)[C@H](CO)NC(=O)[C@@H](NC(=O)[C@H](Cc1ccccc1)NC(=O)[C@@H](NC(=O)CNC(=O)[C@H](CCC(=O)O)NC(=O)C(C)(C)NC(=O)[C@@H](N)Cc1c[nH]cn1)[C@@H](C)O)[C@@H](C)O)[C@@H](C)O)[C@@H](C)CC)C(=O)N[C@@H](C)C(=O)N[C@@H](Cc1c[nH]c2ccccc12)C(=O)N[C@@H](CC(C)C)C(=O)N[C@H](C(=O)N[C@@H](CCC(=O)O)C(=O)N[C@@H](Cc1c[nH]cn1)C(=O)N[C@@H](CCCCN)C(=O)N[C@H](C(=O)N[C@H](C(=O)N[C@@H](CC(=O)O)C(=O)O)[C@@H](C)O)[C@@H](C)CC)[C@@H](C)CC [Compound 65] (HELM PEPTIDE1{H.[Aib].E.G.T.F.T.S.E.L.A.T.I.L.D.E.Q.A.A.K.D.F.I.A.W.L.I.E.H.K.I.T.D}|PEPTIDE2{[O=C(O)CCCCCCCCCCCCCCCCCCC(=O)[*:2]].[gGlu].K.E.K.[O=C(COCCOCCN[*:1])[*:2]]}$PEPTIDE1,PEPTIDE2,20:R3-6:R2$$$V2.0)
0.02	0.18			CC[C@H](C)[C@H](NC(=O)[C@H](Cc1ccccc1)NC(=O)[C@H](CC(=O)O)NC(=O)[C@H](CCCNC(=N)N)NC(=O)[C@H](C)NC(=O)[C@H](C)NC(=O)[C@H](CCC(N)=O)NC(=O)[C@H](CCCCNC(=O)[C@H](CCCCN)NC(=O)[C@H](CCC(=O)O)NC(=O)[C@H](CCCCN)NC(=O)CC[C@H](NC(=O)CCCCCCCCCCCCCCCCCCC(=O)O)C(=O)O)NC(=O)[C@H](CC(=O)O)NC(=O)[C@H](CC(C)C)NC(=O)[C@@H](NC(=O)[C@@H](NC(=O)[C@H](C)NC(=O)[C@H](CC(C)C)NC(=O)[C@H](CCC(=O)O)NC(=O)[C@H](CO)NC(=O)[C@@H](NC(=O)[C@H](Cc1ccccc1)NC(=O)[C@@H](NC(=O)CNC(=O)[C@H](CCC(=O)O)NC(=O)C(C)(C)NC(=O)[C@@H](N)Cc1c[nH]cn1)[C@@H](C)O)[C@@H](C)O)[C@@H](C)O)[C@@H](C)CC)C(=O)N[C@@H](C)C(=O)N[C@@H](Cc1c[nH]c2ccccc12)C(=O)N[C@@H](CC(C)C)C(=O)N[C@H](C(=O)N[C@@H](CCC(N)=O)C(=O)N[C@@H](Cc1c[nH]cn1)C(=O)N[C@@H](CCCCN)C(=O)N[C@H](C(=O)N[C@H](C(=O)N[C@@H](CC(=O)O)C(=O)O)[C@@H](C)O)[C@@H](C)CC)[C@@H](C)CC [Compound 51] (HELM PEPTIDE1{H.[Aib].E.G.T.F.T.S.E.L.A.T.I.L.D.K.Q.A.A.R.D.F.I.A.W.L.I.Q.H.K.I.T.D}|PEPTIDE2{[O=C(O)CCCCCCCCCCCCCCCCCCC(=O)[*:2]].[gGlu].K.E.K}$PEPTIDE1,PEPTIDE2,16:R3-5:R2$$$V2.0)
